Series [1] is described as follows: Turbidimetric solubility assay. As to the method: A single phosphate buffered saline (PBS) tablet (Sigma Aldrich) was dissolved in 200 mL of distilled water (dH2O) (25 °C) to obtain a PBS solution with 0.01 M phosphate buffer, 0.14 M NaCl and 0.003 M KCl.
Stock solutions of the compounds to be tested were prepared in DMSO at a concentration of 10 mM and filtered through syringe filters. Serial dilution of the stock solutions with DMSO was then carried out in a preparatory (prep) 96-well plate giving concentrations between 0.00 and 10.0 mM (0.00, 0.25, 0.50, 1.0, 2.0, 4.0, 8.0 and 10 mM). The solutions were then further diluted into 96-well assay plates containing DMSO, PBS or HEPES buffer by pipetting 4.00 μL of solution from the prep plate to the Assay plate containing 196 μL of DMSO or buffer, giving final concentrations between 0.00 and 200 μM (0.00, 5.00, 10.0, 20.0, 40.0, 80.0, 160 and 200 μM). The assay plates were incubated at 25.0 or 37.0 °C for two hours before their UV-vis absorbance was read at 620 nm with a SPECTROstar Nano microplate reader spectrophotometer. Blank readings were used to gain corrected readings by subtracting them from obtained absorbances for each compound concentration.

The nature of the next series: Cyclic voltammetry. Type of series: physicochemical. From the text:
Ferrocene is known to undergo reversible oxidation and reduction, cycling between its 3^+ ferrocenium and the 2^+ ferrocene (Fc) states.[49,50] This redox behaviour leads to the generation of reactive oxygen species (ROS) through Fenton like reactions, which can in turn lead to parasite death.[51–53] Cyclic voltammetry was used to determine if the synthesised ferrocenyl derivatives had the potential to have an impact on the redox status of the parasite cells. Two different scan rates (25 and 90 mV s^−1) were used to ensure the reliability of the results, compared to ferrocene alone.

The subject of series [2] is RhΔKu80:mNeonGreen strain of T. gondii. Nature of the series: microbe, parasite or virus in culture. Type of series: cell-based, Toxoplasma gondii. To be noted: T. gondii ΔKu80:mNeon in HFFs, 4 days, highest concentration 100 μM; NA = not active at the maximum tested concentration; three biological replicates in triplicate; read-out: EC50. As to the method: Growth inhibition assays were carried out using the RhΔKu80:mNeonGreen strain of T. gondii, which expresses the mNeonGreen fluorescent protein.[56] Parasite growth inhibition was determined by measuring the fluorescence emission of parasite growth in increasing concentrations of compounds of interest.
T. gondii ΔKu80:mNeon tachyzoites were grown in human foreskin fibroblasts (HFFs) with Dulbecco's modified Eagle's medium (DMEM) supplemented with 3% heat inactivated foetal bovine serum (D3) as the culturing medium. Cells and parasites were maintained at 37 °C and 5% carbon dioxide (CO2).
EC50s were calculated as previously described.[56] Briefly, T. gondii ΔKu80:mNeon parasites were counted by haemocytometer and diluted to 25 000 parasites per mL in 40 mL of D3 media, to give an infection of 5000 parasites per well. The media from a black clear bottomed 96 well plate containing HFFs was then aspirated. 200 μL of uninfected D3 media was added to the top and bottom rows of wells (A and H) to serve as blanks. 200 μL of T. gondii containing D3 media was then added to the remaining wells. The parasites were allowed 2 hours to invade host cells, after which test compounds were added.
The media from the infected 96 well plates was then aspirated and 100 μL of D3 media added to each well, excluding column 12. The first 4 wells of column 12 were filled with 300 μL of drug supplemented D3 media, while the next 4 wells were filled with 300 μL of D3 media supplemented with a different drug. The drug supplemented D3 media was then serially diluted 1 : 3 across the plate, stopping at column 2 and disposing of the media, leaving all wells with 100 μL of media. Finally, the plates were closed and incubated at 37 °C with 5% CO2 for 4 days. After 4 days the fluorescence of each well on the plates was read at 594 nm emission using a PHERAstar FS microplate reader. Graphpad Prism 9 software was used to plot dose–response and determine inhibition of parasite growth.

A further series concerns T. gondii. In words: Fluorescence microscopy of infected cells. Type of series: cell-based, Toxoplasma gondii. To be noted: 50 μM. As to the method: To visualise the impact of the target compounds on the parasites, fluorescence microscopy was performed. Compound 17 was used as a representative for the two active compounds and was incubated with infected cells at a concentration of 50 μM for 24 and 48 hours. Fluorescence microscopy images were obtained at each of the timepoints (Fig. 5).
A 24 well plate of HFF host cells grown on cover slips was infected with 100 μL of parasites per well and incubated at 37 °C for 1 h. The media in the wells was aspirated and replaced with media containing 50 μM of 17 The plate was once again incubated for 24 or 48 h at 37 °C. Once incubation was complete, the cells were washed once with PBS, before fixation with 500 μL of 4% paraformaldehyde (PFA) at room temperature for 20 minutes. Cells were washed and 500 μL of blocking buffer (2% bovine serum albumin (BSA) in mL PBST (PBS, 0.2% Triton x-100 solution) and incubated for 20 min at room temperature. The cover slips were then carefully removed from each well, mounted using Fluoromount with DAPI (Southern Biotech), and placed facing down on a microscope slide. Images were obtained using a Leica DiM8 (Leica Microsystems) microscope and processed and deconvolved using SoftWoRx and FIJI software.

For a further series, the system named is HEK293T cell line. To be noted: 25 μM, MTT 48 hours.

“And” between values parts separate entries of the source, which are not always exact repeats. Equal values may be shown once.

The EC50 is the midpoint of the concentration-response curve.

Experimental for HEK293T cell line: Human prostatic epithelial cells (PNT1A) were cultured in Rosewell Park Memorial Institute (RPMI) media supplemented with 10% heat inactivated FBS. Both cell lines were incubated at 37 °C with 5% CO2. Both cell lines were obtained from ATCC.
The cells were allowed to recover overnight before the addition of compounds.
Stock solutions of the test compounds in DMSO were prepared and serially diluted in DMSO in a 96 well plate. […] 10 μL of the test compounds in media was then pipetted into the plates containing cells in triplicate. The cells were then incubated with the test compounds for 48 hours. After incubation, 10 μL of previously prepared MTT reagent was added to each well followed by incubation of the plates for 4 hours. 100 μL of solubilising agent was then pipetted into each well, and the plates incubated overnight. After overnight incubation the plates were read using a BioTek SYNERGY HTX multimode plate reader at 595 nm. Graphpad Prism 9 software was used to plot dose–response and determine cell viability.

With `O=C(NCCn1cnc2cccnc21)[c-]1cccc1.[Fe+2].c1cc[cH-]c1` [Compound 17], the Solubility range is 20-40 µM and 7-15 µg/mL in series [1] (HEPES (pH 7.0), 25 °C); 0-5 µM and 0–2 µg/mL in series [1] (HEPES (pH 7.0), 37 °C); 0-5 µM and 0-2 µg/mL in series [1] (PBS (pH7.4), 25 °C); 5-10 µM and 2-4 µg/mL in series [1] (PBS (pH7.4), 37 °C). Moreover, in series [1] (HEPES (pH 7.0), 37 °C), the Solubility class entry was “poor (solubility <10 μg mL^−1 are considered to have poor solubility)”. The “E 1/2” value in the series “Cyclic voltammetry” (Run1, scan rate 25 mV s^−1) came out at 620 mV; in the series “Cyclic voltammetry” (Run2, scan rate 90 mV s^−1), 618 mV. Further, the ΔEp in the series “Cyclic voltammetry” (Run1, scan rate 25 mV s^−1) was 79 mV; in the series “Cyclic voltammetry” (Run2, scan rate 90 mV s^−1), 68 mV. Further, in series [2], the EC50 is 17.5 µM. Also, the “Parasite plasma membrane integrity (fluorescence microscopy)” value in the series with T. gondii (24 hours, leakage of fluorescent protein) is listed as “damaged plasma membranes”. Further, the “Daughter cell division of parasites that continued to grow (fluorescence microscopy)” value in the series on T. gondii (48 hours) is “abnormal daughter cell division”. For the same molecule, the “Cell survival / % cell viability” value in the series on HEK293T cell line is on record as 70%.

The values are drawn from publication PMC11385693, “Synthesis of ferrocenyl benzimidazole derivatives as novel anti-Toxoplasma gondii agents” (New Journal of Chemistry, 2024).
